Laboratory results as given in PubChem BioAssay AID652253 (Vanderbilt Specialized Chemistry Center, 2013).
Active and inactive are the calls of the source. The rule behind the calls is not given here.

Biological target: Proteinase-activated receptor 4 (Homo sapiens) (UniProt Q96RI0)
Assay: potency of PAR4-AP response blockers – cell-based, CRC, dose response (AID 652253)
Details: cells, PAR4-AP induced response, antagonist CRC; for % PAR4-AP response remaining: at 10 µM (top of the series)

Proteinase-activated receptor 4 (Homo sapiens), sequence (Q96RI0 whole entry, looked up): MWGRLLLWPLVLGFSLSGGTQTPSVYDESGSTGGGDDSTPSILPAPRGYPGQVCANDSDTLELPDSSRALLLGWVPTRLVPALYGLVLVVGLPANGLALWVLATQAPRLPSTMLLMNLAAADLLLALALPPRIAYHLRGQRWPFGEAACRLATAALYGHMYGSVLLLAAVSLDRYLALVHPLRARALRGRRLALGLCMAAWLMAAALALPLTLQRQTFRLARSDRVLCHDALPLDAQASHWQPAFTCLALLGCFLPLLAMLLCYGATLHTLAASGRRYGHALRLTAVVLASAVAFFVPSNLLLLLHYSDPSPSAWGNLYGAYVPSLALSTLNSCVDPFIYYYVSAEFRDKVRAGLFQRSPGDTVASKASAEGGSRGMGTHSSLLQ

**Q.** With `COc1ccc(COc2ccc(C(=O)NCCC(C)(C)C)cc2)cc1` as the compound, how does the IC50 read?
**A.** 0.139 µM

**Q.** How did the “% PAR4-AP response remaining” value turn out when `COc1ccc(-c2cn(Cc3cccc(S(C)(=O)=O)c3)c3ccccc23)cn1` was run?
**A.** inactive

**Q.** For `COc1ccc(-c2cn(Cc3ccccc3)c3ccccc23)cn1`, which IC50 is on record?
**A.** inactive

**Q.** How did the IC50 turn out when `COc1ccc(-c2cn(Cc3cccc(Br)c3)c3ccccc23)cn1` was run?
**A.** inactive

**Q.** How did the IC50 turn out when `COc1ccc(-c2cn(Cc3cccc(F)c3)c3ccccc23)cn1` was run?
**A.** inactive

**Q.** For `COc1ccc(-c2cn(Cc3cccc(Cl)c3)c3ccccc23)cn1`, which IC50 is on record?
**A.** inactive

**Q.** For `Fc1ccc(-c2cn(Cc3ccccc3)c3ccccc23)cn1`, which “% PAR4-AP response remaining” value is on record?
**A.** inactive

**Q.** How did the “% PAR4-AP response remaining” value turn out when `COc1ccc(-c2cn(Cc3ccccc3)c3ccccc23)cc1` was run?
**A.** inactive
